# Values quoted from earlier work, collected in patent US5315013A, “Substituted pyrazole angiotensin II antagonists” (E. I. Du Pont de Nemours and Company, priority 1992, dated 1994).
# Assays:
# [1] = system: AII
# [2] = system: arterial pressure
structure (smiles),measurement,setting,value
CNCC(=O)N[C@@H](CCCN=C(N)N)C(=O)N[C@H](C(=O)N[C@@H](Cc1ccc(O)cc1)C(=O)N[C@H](C(=O)N[C@@H](Cc1cnc[nH]1)C(=O)N1CCC[C@H]1C(=O)N[C@@H](C)C(=O)O)C(C)C)C(C)C [Saralasin],effects of AII on the blood pressure blocked,[1]; pithed rats,blocks the effects of AII on the blood pressure of pithed rats
same,competitive antagonism of the actions of AII,[1]; potency in words,one of the most potent competitive antagonists of the actions of AII
same,lowering of arterial pressure,"[2]; mammals and man, elevated pressure dependent on circulating AII",demonstrated to lower arterial pressure in mammals and man
same,effect of oral doses,[2]; oral,oral doses being ineffective
same,pressor effects (agonistic character),[2]; pressure not sustained by AII,generally elicits pressor effects when the pressure is not sustained by AII
